{
  "source": "patent US7696408B2",
  "about": "“Method to enhance Agrobacterium-mediated transformation of plants” (Regents of the University of Minnesota, priority 1999, dated 2010)",
  "key": {"soybean": {"test_system": "soybean", "test": "Production of transgenic soybean plants", "parameters": "species or system Glycine max", "details": "cysteine 400-1000 mg/l"}, "[1]": {"test_system": "soybean cot-node explants", "test": "De novo shoot production on explants at four weeks on shoot induction media", "format": "cell-based, Glycine max", "details": "for explants producing de novo shoots at four weeks: Experiment #1, Bert; for de novo shoot growth: Experiment #2, MN1301; for explants developing de novo shoots: Experiment #3, MN0901", "source_text": "The explants were removed from the chamber after 14 days and transferred to fresh shoot induction media containing herbicide selection. During the transfer, the hypocotyl was carefully removed from the developing shoot mass and imbedded into the media with the differentiating tissue flush with the media surface. The plates were placed back into the growth chamber for an additional 2 weeks. At the 4 week time point, explants without de novo shoot production were discarded. The cotyledons were then removed from the differentiating tissue by cutting at the base of the node and the callus trimmed before transferring into shoot elongation media containing MS salts (murashige and Skoog, 1962), MSIII iron stock, 3% sucrose, 3 mM MES, 0.8% agar, and filter sterilized B5 vitamins, 50 mg/l asparagine, 100 mg/l pyroglutamic acid, 1 mg/l zeatin riboside, 0.1 mg/l indole-acetic acid, 0.5 mg/l GA3, 100 mg/l cefotaxime, 500 mg/l ticarcillin, 1.3-5 mg/l PPT; pH 5.6). Also at this time, a percentage of the explants were sliced into about 10 sections and stained for both GUS positive sectors and GUS positive shoots. Every 2 weeks the explants were transferred into new shoot elongation media after removing dead plant tissue and the bottom of the explant cut to encourage shoot elongation of transformed shoots.\nFive levels of cysteine were tested: 0 mg/l, 100 mg/l, 200 mg/l, 300 mg/l, and 400 mg/l. Cysteine was incorporated into the solid co-culture media by preparing the media as described hereinabove and dissolving the L-cysteine into the filter sterilized components. For these three experiments, no cysteine was added into the liquid co-cultivation media. To reduce experimental error, explants were placed randomly on all five different treatments and all plates within a treatment were shuffled after completion of the experiment. After co-cultivation, the explants in each treatment were placed on shoot induction media with ½ the concentration of cysteine as in the co-cultivation media. The specific details for each experiment are as follows: • 1. Experiment #1 used the Minnesota genotype Bert and Agrobacterium strain AGL1 containing the BSF16 binary plasmid. A total of 276 explants were wounded and infected with Agrobacterium. After co-cultivation, 10 explants of each treatment were immersed into GUS stain and assayed for transient expression and the remaining explants were washed and transferred to shoot induction media containing 1.33 mg/l PPT for all four weeks. De novo shoots were produced on 74% of the treatments containing 0 mg/l cysteine, 57% on 100 mg/l, 63% on 200 mg/l, 70% on 300 mg/l, and 77% on 400 mg/l at four weeks. […] Experiment #2 used the Minnesota genotype MN1301 and Agrobacterium strain AGL1 containing the BSF16 binary plasmid. A total of 229 explants were dissected, cut, and inoculated. For each cysteine-treatment, half of the explants were incubated during co-cultivation at 21-22° C. and the other half at 25° C. Five explants of each cysteine/temperature treatment were sacrificed to GUS stain and the remaining transferred to fresh shoot induction media containing 1.33 mg/l PPT for 2 weeks. The herbicide level was raised to 3.33 mg/l PPT for the second 2 weeks on shoot induction media. Because of poor de novo shoot growth (35% on 0 mg/l cysteine, 22.8% on 100 mg/l, 32% on 200 mg/l, 42% on 300 mg/l, and 28% on 400 mg/l) and contamination, all explants were sacrificed to GUS stain at the 4 week time point. • 3. Experiment #3 used the Minnesota genotype MN0901 and Agrobacterium strain AGL1 containing the BSF16 binary plasmid. Seedlings were germinated as usual, however, one half of the plates were placed at 4° C. for 24 hours before inoculation. A total of 390 explants were wounded and inoculated. For each cysteine/seedling-temperature treatment, one half of the explants were incubated during co-cultivation at 21-22° C. and the other half at 25° C. […]"}, "fava bean explants": {"test_system": "fava bean explants", "test": "Enzymatic browning of fava bean explants", "format": "cell-based", "details": "cysteine (e.g., 400-1000 mg/l) in solid co-cultivation medium"}, "[2]": {"test_system": "soybean cot-node explants", "test": "De novo shoot production on explants at four weeks on shoot induction media", "format": "cell-based, Glycine max", "details": "Experiment #4, Bert"}, "[3]": {"test_system": "soybean cot-node explants", "test": "GUS transient expression on soybean cot-node explants after 5-day co-cultivation with Agrobacterium (T-DNA delivery)", "format": "cell-based, Glycine max"}, "soybean explants": {"test_system": "soybean explants", "test": "Enzymatic browning and growth of soybean explants after co-cultivation", "format": "cell-based, Glycine max", "details": "for enzymatic browning of soybean explants: cysteine (e.g., 400-1000 mg/l) in solid co-cultivation medium"}},
  "note": "Entries after “also recorded” stand apart in the source; their conditions may differ.",
  "data": [
    {"smiles": "N[C@@H](CS)C(=O)O", "note": "[L-cysteine]", "values": [
      {"measurement": "increase in production of transgenic plants", "setting": "soybean", "result": 2, "unit": "fold"},
      {"measurement": "explants producing de novo shoots at four weeks", "setting": "[1]; 100 mg/l cysteine, control 74%", "result": 57, "unit": "%"},
      {"measurement": "explants producing de novo shoots at four weeks", "setting": "[1]; 200 mg/l cysteine", "result": 63, "unit": "%"},
      {"measurement": "explants producing de novo shoots at four weeks", "setting": "[1]; 300 mg/l cysteine", "result": 70, "unit": "%"},
      {"measurement": "explants producing de novo shoots at four weeks", "setting": "[1]; 400 mg/l cysteine", "result": 77, "unit": "%"},
      {"measurement": "de novo shoot growth", "setting": "[1]; 100 mg/l cysteine, control 35%", "result": 22.8, "unit": "%"},
      {"measurement": "de novo shoot growth", "setting": "[1]; 200 mg/l cysteine", "result": 32, "unit": "%"},
      {"measurement": "de novo shoot growth", "setting": "[1]; 300 mg/l cysteine", "result": 42, "unit": "%"},
      {"measurement": "de novo shoot growth", "setting": "[1]; 400 mg/l cysteine", "result": 28, "unit": "%"},
      {"measurement": "explants developing de novo shoots", "setting": "[1]; 100 mg/l cysteine, control 64%", "result": 53, "unit": "%"},
      {"measurement": "explants developing de novo shoots", "setting": "[1]; 200 mg/l cysteine", "result": 54, "unit": "%"},
      {"measurement": "explants developing de novo shoots", "setting": "[1]; 300 mg/l cysteine", "result": 53, "unit": "%"},
      {"measurement": "explants developing de novo shoots", "setting": "[1]; 400 mg/l cysteine", "result": 61, "unit": "%"},
      {"measurement": "enzymatic browning of fava bean explants", "setting": "fava bean explants", "result": "decreased"},
      {"measurement": "explants that developed de novo shoots", "setting": "[2]; 0S,400L", "result": 75, "unit": "%"},
      {"measurement": "explants that developed de novo shoots", "setting": "[2]; 400L,0S (mg/l cysteine liquid, solid), control 0L,0S 76%", "result": 47, "unit": "%"},
      {"measurement": "explants that developed de novo shoots", "setting": "[2]; 400L,400S", "result": 68, "unit": "%"},
      {"measurement": "infection in genotypes that respond poorly to the cot-node method", "setting": "[3]; 400 mg/l cysteine, MN1401, Granite, Lambert, MN1801, MN0301", "result": "significant increase in infection"},
      {"measurement": "GUS+ foci on 5 day explants, cysteine only in liquid media", "setting": "[3]; cysteine added only to liquid Agrobacterium culture (YEP) or liquid co-cultivation medium", "result": "did not increase; also recorded: no increases detected"},
      {"measurement": "callus growth on the hypocotyl", "setting": "soybean explants; co-cultivated in 1000 mg/l cysteine, 28 days", "result": "little callus growth on the hypocotyl"},
      {"measurement": "growth of the hypocotyls of explants", "setting": "soybean explants; co-cultivated in 800 and 1000 mg/l cysteine, experiment #7", "result": "little to no growth of the hypocotyls"},
      {"measurement": "enzymatic browning of soybean explants", "setting": "soybean explants; listed as Cysteine", "result": "decreased"},
      {"measurement": "enzymatic browning of soybean explants", "setting": "soybean explants; listed as cysteine", "result": "less browning"}
    ]}
  ]
}
